# Experiments:
# [1] = target: T1, AsAChE-B (Atta sexdens, UniProt A0A2R2V0F5); assay: on-flow LC-MS/MS of choline with immobilized enzyme capillary reactor; assay type: biochemical; details: read-out: % inhibition at 0.1 mM
# T1 construct: native, soluble, from worker heads
# [2] = system: T2, AsAChE-A; assay: Ellman assay, […] nm, Lineweaver-Burk; assay type: biochemical, Atta sexdens; details: free enzyme; Tris-HCl, optimal pH (9.5) and temperature (30 or 50 °C, which not told); iodide salt; partially purified native enzyme
# T2 construct: gene ace 2; native, soluble, from worker heads
# [3] = system: T2, AsAChE-A; assay: LC-MS/MS quantification of choline, HILIC; assay type: biochemical, Atta sexdens; details: free enzyme; 15 mM ammonium acetate, pH 5.0 as printed; 5 min
# Description: LC-MS/MS quantification of choline, HILIC on AsAChE-A
structure (smiles),measurement,setting,value
Nc1c2c(nc3ccccc13)CCCC2 [tacrine],inhibition at 100 µM,[1],16%
"CC(=O)SCC[N+](C)(C)C [ATCh, acetylthiocholine]",Km,[2],39.1 ± 2.3 µM
"CC(=O)OCC[N+](C)(C)C [ACh, acetylcholine]",Km,[3],40.7 ± 12.5 µM

# — PMC6633970, “Acetylcholinesterases from Leaf-Cutting ant Atta sexdens: Purification, Characterization, and Capillary Reactors for On-Flow Assays” (Enzyme Research, 2019)
